ChEMBL document CHEMBL1817645, “Synthesis and pharmacological evaluation of 1-alkyl-N-[2-ethyl-2-(4-fluorophenyl)butyl]piperidine-4-carboxamide derivatives as novel antihypertensive agents” (Bioorg Med Chem, 2011)
The source made the active and inactive calls. The rule behind the calls is not given here.

Biological target: Voltage-dependent T-type calcium channel subunit alpha-1G (Homo sapiens, UniProt O43497)
Assay: Inhibition of human Cav3.1 alpha1G expressed in HEK293 cells assessed as inhibition of calcium influx by FLIPR assay
Assay type: cell-based
Conditions: not given

Sequence of Voltage-dependent T-type calcium channel subunit alpha-1G (O43497 whole entry): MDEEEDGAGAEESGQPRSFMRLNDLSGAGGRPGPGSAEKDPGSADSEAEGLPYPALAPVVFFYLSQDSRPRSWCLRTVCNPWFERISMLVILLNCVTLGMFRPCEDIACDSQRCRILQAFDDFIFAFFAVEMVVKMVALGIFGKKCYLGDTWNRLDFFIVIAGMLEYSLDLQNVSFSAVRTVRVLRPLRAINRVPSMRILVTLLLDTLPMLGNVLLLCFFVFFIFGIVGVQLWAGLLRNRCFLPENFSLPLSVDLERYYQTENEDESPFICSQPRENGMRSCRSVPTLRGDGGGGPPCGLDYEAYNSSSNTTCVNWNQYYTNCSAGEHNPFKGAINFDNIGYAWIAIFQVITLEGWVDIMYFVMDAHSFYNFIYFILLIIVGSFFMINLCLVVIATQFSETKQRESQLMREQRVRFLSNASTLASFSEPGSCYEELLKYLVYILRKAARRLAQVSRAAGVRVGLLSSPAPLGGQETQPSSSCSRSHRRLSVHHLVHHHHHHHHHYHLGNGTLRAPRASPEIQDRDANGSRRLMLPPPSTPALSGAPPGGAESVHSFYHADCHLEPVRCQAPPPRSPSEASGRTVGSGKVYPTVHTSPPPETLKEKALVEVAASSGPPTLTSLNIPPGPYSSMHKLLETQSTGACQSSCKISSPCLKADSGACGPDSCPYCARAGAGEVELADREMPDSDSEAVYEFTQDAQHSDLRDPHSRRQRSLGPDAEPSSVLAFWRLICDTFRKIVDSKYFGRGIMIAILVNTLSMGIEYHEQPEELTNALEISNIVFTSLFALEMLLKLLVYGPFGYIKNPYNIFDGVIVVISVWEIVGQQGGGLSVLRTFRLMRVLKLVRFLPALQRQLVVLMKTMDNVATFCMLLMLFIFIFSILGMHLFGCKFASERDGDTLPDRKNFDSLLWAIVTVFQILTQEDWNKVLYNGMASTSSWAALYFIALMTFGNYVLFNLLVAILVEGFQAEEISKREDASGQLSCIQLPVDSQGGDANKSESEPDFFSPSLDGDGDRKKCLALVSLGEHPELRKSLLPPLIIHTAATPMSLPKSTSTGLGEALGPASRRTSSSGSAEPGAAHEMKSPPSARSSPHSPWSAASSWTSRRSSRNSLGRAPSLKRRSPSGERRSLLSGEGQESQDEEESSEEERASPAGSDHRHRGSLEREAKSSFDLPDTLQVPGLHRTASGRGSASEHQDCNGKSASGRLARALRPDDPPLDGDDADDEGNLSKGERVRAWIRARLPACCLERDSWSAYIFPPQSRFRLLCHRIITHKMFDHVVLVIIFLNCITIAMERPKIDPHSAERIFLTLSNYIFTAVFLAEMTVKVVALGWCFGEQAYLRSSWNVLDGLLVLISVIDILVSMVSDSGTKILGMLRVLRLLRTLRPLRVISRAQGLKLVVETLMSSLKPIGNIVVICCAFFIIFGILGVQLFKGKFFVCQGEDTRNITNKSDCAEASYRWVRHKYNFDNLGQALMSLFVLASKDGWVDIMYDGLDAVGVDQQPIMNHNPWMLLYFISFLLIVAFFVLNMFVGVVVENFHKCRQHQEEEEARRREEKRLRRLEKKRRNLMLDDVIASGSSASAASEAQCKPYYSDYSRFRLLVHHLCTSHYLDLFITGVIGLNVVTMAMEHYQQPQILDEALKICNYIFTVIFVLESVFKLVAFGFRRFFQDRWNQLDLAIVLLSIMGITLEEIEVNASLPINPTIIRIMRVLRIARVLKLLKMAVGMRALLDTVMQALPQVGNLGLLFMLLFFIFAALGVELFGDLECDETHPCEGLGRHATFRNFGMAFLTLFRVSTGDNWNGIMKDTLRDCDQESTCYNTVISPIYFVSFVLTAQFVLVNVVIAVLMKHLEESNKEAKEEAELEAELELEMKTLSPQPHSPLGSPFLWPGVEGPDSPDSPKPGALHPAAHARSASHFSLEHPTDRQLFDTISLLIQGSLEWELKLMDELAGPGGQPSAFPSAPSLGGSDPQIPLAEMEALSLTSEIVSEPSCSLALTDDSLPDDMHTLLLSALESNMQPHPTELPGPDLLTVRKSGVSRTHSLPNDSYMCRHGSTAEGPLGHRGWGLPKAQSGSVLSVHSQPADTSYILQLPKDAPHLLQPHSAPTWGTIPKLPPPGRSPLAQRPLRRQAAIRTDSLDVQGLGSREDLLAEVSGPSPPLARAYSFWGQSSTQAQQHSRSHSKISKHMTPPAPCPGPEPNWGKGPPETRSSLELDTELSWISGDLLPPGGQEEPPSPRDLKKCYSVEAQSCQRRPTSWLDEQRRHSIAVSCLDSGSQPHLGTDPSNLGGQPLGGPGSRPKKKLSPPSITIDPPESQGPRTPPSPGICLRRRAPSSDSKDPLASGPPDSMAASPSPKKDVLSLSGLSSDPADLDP

| SMILES | IC50 [nM] |
| --- | --- |
| O=C(NCC1(c2ccc(F)cc2)CCC1)C1CCN(Cc2ccccc2)CC1 | 390 |
| CCC(CC)(CNC(=O)C1CCN(CCc2ccc(OC)cc2)CC1)c1ccc(F)cc1 | 770 |
| O=C(NCC1(c2ccc(F)cc2)CCCCC1)C1CCCCN1Cc1ccccc1 (configuration not stated) | 3000 |
| O=C(CC1(c2ccc(F)cc2)CCCCC1)NC1CCN(Cc2ccccc2)CC1 | 860 |
| CCCC(CCC)(CNC(=O)C1CCN(Cc2ccccc2)CC1)c1ccc(F)cc1 | 370 |
| CN(CC1(c2ccc(F)cc2)CCCCC1)C(=O)C1CCN(Cc2ccccc2)CC1 | 750 |
| O=C(NCC1(c2ccc(F)cc2)CCCCC1)C1CCCN(Cc2ccccc2)C1 (configuration not stated) | 1200 |
| Fc1ccc(C2(CNCC3CCN(Cc4ccccc4)CC3)CCCCC2)cc1 | 1200 |
| O=C(CCC1(c2ccc(F)cc2)CCCCC1)C1CCN(Cc2ccccc2)CC1 | 2000 |
| CCC(CC)(CNC(=O)C1CCN(CCOc2ccccc2)CC1)c1ccc(F)cc1 | 260 |
| O=C(NCC1(c2ccc(F)cc2)CCCCC1)C1CCN(Cc2ccccc2)CC1 | 510 |
| CCC(CC)(CNC(=O)C1CCN(CCCCc2ccccc2)CC1)c1ccc(F)cc1 | 250 |
| O=C(NCC1(c2ccc(F)cc2)CCOCC1)C1CCN(Cc2ccccc2)CC1 | 2200 |
| COc1ccc(CN2CCC(C(=O)NCC3(c4ccc(F)cc4)CCCCC3)CC2)cc1OC | 320 |

More lines, now with the values ahead:

| IC50 [nM] | SMILES |
| --- | --- |
| 240 | CCC(CC)(CNC(=O)C1CCN(CCCc2ccccc2)CC1)c1ccc(F)cc1 |
| 220 | O=C(NCC1(c2ccc(F)cc2)CCCC1)C1CCN(Cc2ccccc2)CC1 |
| 200 | CCC(CC)(CNC(=O)C1CCN(Cc2ccc(OC)cc2)CC1)c1ccc(F)cc1 |
| 180 | CCC(CC)(CNC(=O)C1CCN(CCc2ccc(F)cc2)CC1)c1ccc(F)cc1 |
| 170 | CCC(CC)(CNC(=O)C1CCN(CCc2ccccc2OC)CC1)c1ccc(F)cc1 |
| 140 | CCC(CC)(CNC(=O)C1CCN(CCc2cccc(OC)c2)CC1)c1ccc(F)cc1 |
| 130 | CCC(CC)(CNC(=O)C1CCN(CCc2cccc(F)c2)CC1)c1ccc(F)cc1 |
| 130 | CC(C)(CNC(=O)C1CCN(Cc2ccccc2)CC1)c1ccc(F)cc1 |
| 130 | CCC(CC)(CNC(=O)C1CCN(Cc2cccc(F)c2)CC1)c1ccc(F)cc1 |
| 120 | CCC(CC)(CNC(=O)C1CCN(Cc2ccccc2OC)CC1)c1ccc(F)cc1 |
| 94 | CCC(CC)(CNC(=O)C1CCN(Cc2cccc(OC)c2)CC1)c1ccc(F)cc1 |
| 90 | CCC(CC)(CNC(=O)C1CCN(CCc2ccccc2F)CC1)c1ccc(F)cc1 |
| 89 | CCC(CC)(CNC(=O)C1CCN(CCc2ccccc2)CC1)c1ccc(F)cc1 |
| 85 | CCC(CC)(CNC(=O)C1CCN(Cc2ccccc2)CC1)c1ccc(F)cc1 |
| 82 | CCC(CC)(CNC(=O)C1CCN(Cc2ccc(F)cc2)CC1)c1ccc(F)cc1 |
| 36 | CCC(CC)(CNC(=O)C1CCN(Cc2ccccc2F)CC1)c1ccc(F)cc1 |

Test system: not listed separately
Assay: Bradycardic activity in Hartley guinea pig right atrial muscles assessed as reduction of initial spontaneous beat rate after 30 mins
Assay type: functional
Conditions: Cavia porcellus, Muscle tissue, 0.5 h

| SMILES | EC30 [nM] |
| --- | --- |
| CCC(CC)(CNC(=O)C1CCN(CCc2ccccc2)CC1)c1ccc(F)cc1 | 2500 |
| COCC(=O)O[C@]1(CCN(C)CCCc2nc3ccccc3[nH]2)CCc2cc(F)ccc2[C@@H]1C(C)C [MIBEFRADIL] | 2900 |
| CCC(CC)(CNC(=O)C1CCN(Cc2ccccc2F)CC1)c1ccc(F)cc1 | 4200 |
| COc1ccc(CN2CCC(C(=O)NCC3(c4ccc(F)cc4)CCCCC3)CC2)cc1OC | 2100 |

Test system: Rattus norvegicus
Assay: Antihypertensive activity in spontaneously hypertensive rat assessed as reduction of mean blood pressure at 30 mg/kg, po
Assay type: functional
Set-up: scale not given: the % may be the effect or the level left
Conditions: not given

| SMILES | Activity [%] |
| --- | --- |
| CCC(CC)(CNC(=O)C1CCN(CCc2ccccc2)CC1)c1ccc(F)cc1 | 22 |

Test system: Rattus norvegicus
Assay: Toxicity in spontaneously hypertensive rat assessed as effect on reflex tachycardia at 30 mg/kg, po after 8 hrs
Assay type: organism-based
Set-up: dose 30 mg/kg, route oral
Conditions: in vivo

| SMILES | Activity |
| --- | --- |
| CCC(CC)(CNC(=O)C1CCN(CCc2ccccc2)CC1)c1ccc(F)cc1 | Non-toxic |

Test system: Rattus norvegicus
Assay: Antihypertensive activity in spontaneously hypertensive rat assessed as reduction of mean blood pressure at 30 mg/kg, po after 8 hrs
Assay type: functional, organism-based
Set-up: dose 30 mg/kg
Conditions: not given

| SMILES | Activity |
| --- | --- |
| CCC(CC)(CNC(=O)C1CCN(CCc2ccccc2)CC1)c1ccc(F)cc1 | Active |
